Results from patent US20080119530A1, “Method for treatment and prevention of ultraviolet light induced skin pathologies” (priority 2006, published 2008).
Marks after values point to notes of the source that are not given here.

System: skin
Test: Affymetrix microarray analysis of gene expression in mouse skin
Type: in vivo
Description: Adult female CD-1 mice were maintained in our animal facility and provided with Purina lab chow (Nestlé Purina PetCare, St. Louis, Mo.) and water ad libitum. The dorsal skin was clipped one day before treatment and shaved with a Remington Microscreen shaver (Wahl, Sterling, II) on the day of treatment. […] UVB TL 40W/12 RS bulbs (Philips, Somerset, N.J.) were used that emitted approximately 30% UV-A, 70% UV-B and <1% UV-C, with a total output of 470 μW/cm^2, as measured with radiometric photodetector probes (Newport, Irvine, Calif.). Skin-fold thickness was measured using calipers to lightly pinch the dorsal skin. All animal procedures were approved by our Institutional Animal Care and Use Committee.
Microarray Analysis. Flash frozen skin was ground to a powder using a mortar and pestle and RNA extracted using a PowerGen 700 tissue homogenizer (Fisher, Hampton, N.H.) in TRIzol reagent (Invitrogen, Carlsbad, Calif.) according to the manufacturer's protocol. Total RNA was further purified using RNeasy Midi Columns according to the manufacturer's protocol (Qiagen, Valencia, Calif.). The quality of the RNA was assessed using an RNA 6000 Pico Assay (Aligent, Palo Alto, Calif.) with a Bioanalyzer (Agilent, Palo Alto, Calif.). Mouse MOE430A gene chips were purchased from Affymetrix (Santa Clara, Calif.). Five micrograms of total RNA from each sample was reverse transcribed using Superscript II (Invitrogen, Carlsbad, Calif.). In vitro transcription to generate biotinylated cRNA was performed using the Bioarray High Yield RNA Transcript Labeling kit (Enzo Diagnostics, Farmingdale, N.Y.). Fifteen micrograms of fragmented cRNA was hybridized for 16 h to mouse MOE430A chips at 45° C. using the Affymetrix 640 hybridization oven, stained, and scanned using the Agilent scanner according to standard Affymetrix protocols. Signal intensities from the Affymetrix “.CEL” files were derived using GeneChip Operating Software v1.2 (Affymetrix, Santa Clara, Calif.), multiplicative model-based expression index (dChip software)^19 and robust multi-array average^20. The data discussed in this publication have been deposited in NCBIs Gene Expression Omnibus (GEO) and are accessible through GEO Series accession number GSE4066. Methods employed to determine significant changes in gene expression from the derived signal intensities were Rank Products (RP)21, Significance Analysis of Microarrays (SAM)^22, Analysis of Variance (ANOVA), Student's t-test, and fold-change. […] Hierarchical clustering of gene expression was performed with dChip software. […] Significant clustering was also found among samples 6 h after UV and among samples 24 h after UV. Furthermore, significant clustering was found among samples treated with DMSO and among those treated with AG825. Scatter plots were generated using GeneChip Operating Software. Self-Organizing Maps were generated using GeneCluster 2.0 software^23. Grouping of genes into biological processes was performed using NetAffx Analysis Center and literature searches. Genes were mapped into biological networks with Pathways Analysis software (Ingenuity Systems, Mountain View, Calif.). Promoter Analysis and Interaction Network Toolset v3.3 (PAINT) was used to scan sequences up to 2000 base pair upstream of genes with altered expression to search for transcription factor binding sequences or transcriptional response elements (TRE) using a 0.95 core similarity threshold^24.
The influence of Erbb2 on gene expression following UV exposure was assessed using microarray analysis. […] Mice were exposed to UV twice because previous results indicated the influence of Erbb receptors on the response of the skin to UV increases with multiple exposures (22). […] In two randomly selected vehicle-treated and sham-irradiated mice, 8 genes out of approximately 13,000 detected (<0.1%) were expressed with more than a 5-fold difference between them. […]

[1] = Adhesion and Migration, 6 h post-UV
[2] = Adhesion and Migration, 24 h post-UV
[3] = Cell Communication, 6 h post-UV
[4] = Cell Communication, 24 h post-UV
[5] = Pigment Biosynthesis, 6 h post-UV
[6] = Pigment Biosynthesis, 24 h post-UV

Structure (SMILES): COc1cc(/C=C(\C#N)C(N)=O)cc(CSc2nc3ccccc3s2)c1O [AG825]
- number of genes with altered expression (6 h after UV): 218
- share of the altered genes with increased expression (6 h after UV): 61%
- number of genes with altered expression (24 h after UV): 127
- share of the altered genes with increased expression (24 h after UV): 54%
- fold increase in Mmp9 expression (24 h after UV exposure, Affymetrix data): 2 fold
- Thbs1 expression vs vehicle-treated mice (24 h post-UV, Affymetrix probe): similar
- Total number of genes changed in AG825-treated samples (Adhesion and Migration): 47
- percentage of the total number of genes altered by Erbb2 (Adhesion and Migration): (13%)
- Number of genes decreased (↓) in AG825-treated samples when compared to the vehicle alone [1]: 13
- Number of genes increased (↑) in AG825-treated samples when compared to the vehicle alone [1]: 14
- Number of genes decreased (↓) in AG825-treated samples when compared to the vehicle alone [2]: 14
- Number of genes increased (↑) in AG825-treated samples when compared to the vehicle alone [2]: 4
- Number of genes decreased (↓) in AG825-treated samples when compared to the vehicle alone (Adhesion and Migration, Sham): 0
- Number of genes increased (↑) in AG825-treated samples when compared to the vehicle alone (Adhesion and Migration, Sham): 7
- Total number of genes changed in AG825-treated samples (Apoptosis): 25
- percentage of the total number of genes altered by Erbb2 (Apoptosis): (7%)
- Number of genes decreased (↓) in AG825-treated samples when compared to the vehicle alone (Apoptosis, 6 h post-UV): 6
- Number of genes increased (↑) in AG825-treated samples when compared to the vehicle alone (Apoptosis, 6 h post-UV): 5
- Number of genes decreased (↓) in AG825-treated samples when compared to the vehicle alone (Apoptosis, 24 h post-UV): 4
- Number of genes increased (↑) in AG825-treated samples when compared to the vehicle alone (Apoptosis, 24 h post-UV): 6
- Number of genes decreased (↓) in AG825-treated samples when compared to the vehicle alone (Apoptosis, Sham): 2
- Number of genes increased (↑) in AG825-treated samples when compared to the vehicle alone (Apoptosis, Sham): 2
- Total number of genes changed in AG825-treated samples (Cancer): 55
- percentage of the total number of genes altered by Erbb2 (Cancer): (15%)
- Number of genes decreased (↓) in AG825-treated samples when compared to the vehicle alone (Cancer, 6 h post-UV): 12
- Number of genes increased (↑) in AG825-treated samples when compared to the vehicle alone (Cancer, 6 h post-UV): 25
- Number of genes decreased (↓) in AG825-treated samples when compared to the vehicle alone (Cancer, 24 h post-UV): 7
- Number of genes increased (↑) in AG825-treated samples when compared to the vehicle alone (Cancer, 24 h post-UV): 8
- Number of genes decreased (↓) in AG825-treated samples when compared to the vehicle alone (Cancer, Sham): 3
- Number of genes increased (↑) in AG825-treated samples when compared to the vehicle alone (Cancer, Sham): 5
- Total number of genes changed in AG825-treated samples (Cell Communication): 65
- percentage of the total number of genes altered by Erbb2 (Cell Communication): (18%)
- Number of genes decreased (↓) in AG825-treated samples when compared to the vehicle alone [3]: 18
- Number of genes increased (↑) in AG825-treated samples when compared to the vehicle alone [3]: 18
- Number of genes decreased (↓) in AG825-treated samples when compared to the vehicle alone [4]: 20
- Number of genes increased (↑) in AG825-treated samples when compared to the vehicle alone [4]: 5
- Number of genes decreased (↓) in AG825-treated samples when compared to the vehicle alone (Cell Communication, Sham): 1
- Number of genes increased (↑) in AG825-treated samples when compared to the vehicle alone (Cell Communication, Sham): 6
- Total number of genes changed in AG825-treated samples (Development): 55
- percentage of the total number of genes altered by Erbb2 (Development): (15%)
- Number of genes decreased (↓) in AG825-treated samples when compared to the vehicle alone (Development, 6 h post-UV): 8
- Number of genes increased (↑) in AG825-treated samples when compared to the vehicle alone (Development, 6 h post-UV): 26
- Number of genes decreased (↓) in AG825-treated samples when compared to the vehicle alone (Development, 24 h post-UV): 12
- Number of genes increased (↑) in AG825-treated samples when compared to the vehicle alone (Development, 24 h post-UV): 4
- Number of genes decreased (↓) in AG825-treated samples when compared to the vehicle alone (Development, Sham): 2
- Number of genes increased (↑) in AG825-treated samples when compared to the vehicle alone (Development, Sham): 6
- Total number of genes changed in AG825-treated samples (Immune Response): 65
- percentage of the total number of genes altered by Erbb2 (Immune Response): (18%)
- Number of genes decreased (↓) in AG825-treated samples when compared to the vehicle alone (Immune Response, 6 h post-UV): 42
- Number of genes increased (↑) in AG825-treated samples when compared to the vehicle alone (Immune Response, 6 h post-UV): 3
- Number of genes decreased (↓) in AG825-treated samples when compared to the vehicle alone (Immune Response, 24 h post-UV): 14
- Number of genes increased (↑) in AG825-treated samples when compared to the vehicle alone (Immune Response, 24 h post-UV): 4
- Number of genes decreased (↓) in AG825-treated samples when compared to the vehicle alone (Immune Response, Sham): 0
- Number of genes increased (↑) in AG825-treated samples when compared to the vehicle alone (Immune Response, Sham): 8
- Total number of genes changed in AG825-treated samples (Metabolism): 158
- Number of genes decreased (↓) in AG825-treated samples when compared to the vehicle alone (Metabolism, 6 h post-UV): 23
- Number of genes increased (↑) in AG825-treated samples when compared to the vehicle alone (Metabolism, 6 h post-UV): 63
- Number of genes decreased (↓) in AG825-treated samples when compared to the vehicle alone (Metabolism, 24 h post-UV): 24
- Number of genes increased (↑) in AG825-treated samples when compared to the vehicle alone (Metabolism, 24 h post-UV): 43
- Number of genes decreased (↓) in AG825-treated samples when compared to the vehicle alone (Metabolism, Sham): 10
- Number of genes increased (↑) in AG825-treated samples when compared to the vehicle alone (Metabolism, Sham): 9
- Total number of genes changed in AG825-treated samples (Pigment Biosynthesis): 6
- percentage of the total number of genes altered by Erbb2 (Pigment Biosynthesis): (2%)
- Number of genes decreased (↓) in AG825-treated samples when compared to the vehicle alone [5]: 0
- Number of genes increased (↑) in AG825-treated samples when compared to the vehicle alone [5]: 5
- Number of genes decreased (↓) in AG825-treated samples when compared to the vehicle alone [6]: 0
- Number of genes increased (↑) in AG825-treated samples when compared to the vehicle alone [6]: 1
- Number of genes decreased (↓) in AG825-treated samples when compared to the vehicle alone (Pigment Biosynthesis, Sham): 3
- Number of genes increased (↑) in AG825-treated samples when compared to the vehicle alone (Pigment Biosynthesis, Sham): 0
- Total number of genes changed in AG825-treated samples (Proliferation): 36
- percentage of the total number of genes altered by Erbb2 (Proliferation): (10%)^c
- Number of genes decreased (↓) in AG825-treated samples when compared to the vehicle alone (Proliferation, 6 h post-UV): 6
- Number of genes increased (↑) in AG825-treated samples when compared to the vehicle alone (Proliferation, 6 h post-UV): 21
- Number of genes decreased (↓) in AG825-treated samples when compared to the vehicle alone (Proliferation, 24 h post-UV): 3
- Number of genes increased (↑) in AG825-treated samples when compared to the vehicle alone (Proliferation, 24 h post-UV): 6
- Number of genes decreased (↓) in AG825-treated samples when compared to the vehicle alone (Proliferation, Sham): 3^b
- Number of genes increased (↑) in AG825-treated samples when compared to the vehicle alone (Proliferation, Sham): 2
- Total number of genes changed in AG825-treated samples (Total Genes): 361
- Number of genes decreased (↓) in AG825-treated samples when compared to the vehicle alone (Total Genes, 6 h post-UV): 85
- Number of genes increased (↑) in AG825-treated samples when compared to the vehicle alone (Total Genes, 6 h post-UV): 133
- Number of genes decreased (↓) in AG825-treated samples when compared to the vehicle alone (Total Genes, 24 h post-UV): 59
- Number of genes increased (↑) in AG825-treated samples when compared to the vehicle alone (Total Genes, 24 h post-UV): 68
- Number of genes decreased (↓) in AG825-treated samples when compared to the vehicle alone (Total Genes, Sham): 14
- Number of genes increased (↑) in AG825-treated samples when compared to the vehicle alone (Total Genes, Sham): 25
- expression of cell cycle regulatory genes such as Ccna2, Ccnb1 and Ccnb2 (after UV): lesser responsiveness to UV
- share of the altered genes with increased expression (all 361 genes): 61%
- expression of proinflammatory chemokines such as Cxcl2 and Cd44 compared to vehicle-treated skin (by 24 h after UV exposure): lower
- Il1 b expression: fold greater increase after UV in vehicle-treated compared to AG825-treated samples (microarray): 16 fold
- expression of the anti-apoptotic genes Ghr and Ptgs2 (mouse, in vivo): suppressed
- fold higher Thbs1 expression compared to corresponding control (sham-irradiated skin, Affymetrix probe): 2 fold
- number of genes with altered expression (without UV irradiation): 39
- share of the altered genes with increased expression (without UV irradiation): 64%
